pEC50: −log10 of the molar value.
Experiments:
Rattus norvegicus [1] = assay: Anticonvulsant activity in Sprague-Dawley rat assessed as protection against maximal electroshock-induced convulsion at 30 mg/kg, sc administered 30 mins prior to application of shock via corneal electrodes relative to control; assay type: functional
Rattus norvegicus [2] = assay: Anticonvulsant activity in sc dosed Sprague-Dawley rat assessed as protection against maximal electroshock-induced convulsion administered 30 mins prior to application of shock via corneal electrodes; assay type: functional, organism-based
[3] = Ratio of free drug level in plasma to brain in Sprague-Dawley rat at 1 mg/kg, sc administration at 30 mins; assay type: ADME, organism-based; conditions: in vivo, 0.5 h
[4] = molecular target: T1, Voltage-gated potassium channel, KQT; KCNQ2(Kv7.2)/KCNQ3(Kv7.3) (Homo sapiens) (UniProt O43526+O43525); assay: Activation of human Kv7.2/7.3 expressed in CHOK1 cells assessed as increase in current amplitude relative to control; assay type: cell-based; conditions: CHO-K1
[5] = molecular target: T2, Voltage-gated potassium channel KCNQ3/KCNQ5 (Homo sapiens, UniProt O43525+Q9NR82); assay: Activation of human Kv7.3/7.5 expressed in CHOK1 cells assessed as increase in current amplitude relative to control; assay type: cell-based; conditions: CHO-K1
T2 sequence (O43525 whole entry): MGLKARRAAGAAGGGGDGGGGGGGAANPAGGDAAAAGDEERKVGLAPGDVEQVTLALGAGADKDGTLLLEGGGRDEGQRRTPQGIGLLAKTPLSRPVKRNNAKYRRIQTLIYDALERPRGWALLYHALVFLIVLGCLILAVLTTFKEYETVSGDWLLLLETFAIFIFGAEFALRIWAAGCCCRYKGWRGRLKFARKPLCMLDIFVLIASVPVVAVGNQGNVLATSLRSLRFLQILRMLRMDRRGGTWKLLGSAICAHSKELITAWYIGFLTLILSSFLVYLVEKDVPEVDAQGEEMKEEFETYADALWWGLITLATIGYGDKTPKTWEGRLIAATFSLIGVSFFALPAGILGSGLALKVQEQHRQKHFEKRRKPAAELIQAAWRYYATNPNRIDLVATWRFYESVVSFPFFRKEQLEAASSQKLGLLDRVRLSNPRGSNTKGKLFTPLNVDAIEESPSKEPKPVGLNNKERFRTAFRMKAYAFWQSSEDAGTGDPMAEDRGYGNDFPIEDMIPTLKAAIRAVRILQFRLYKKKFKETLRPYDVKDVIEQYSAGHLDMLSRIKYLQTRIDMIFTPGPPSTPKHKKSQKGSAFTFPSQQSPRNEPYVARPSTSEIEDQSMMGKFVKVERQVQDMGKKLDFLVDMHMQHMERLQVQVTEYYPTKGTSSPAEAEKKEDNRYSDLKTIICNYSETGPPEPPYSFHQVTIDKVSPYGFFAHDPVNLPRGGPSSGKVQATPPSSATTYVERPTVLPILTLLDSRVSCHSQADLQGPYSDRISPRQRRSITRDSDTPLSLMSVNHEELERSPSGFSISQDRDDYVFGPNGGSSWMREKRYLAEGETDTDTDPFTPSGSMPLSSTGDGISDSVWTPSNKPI
T2 sequence (Q9NR82 whole entry): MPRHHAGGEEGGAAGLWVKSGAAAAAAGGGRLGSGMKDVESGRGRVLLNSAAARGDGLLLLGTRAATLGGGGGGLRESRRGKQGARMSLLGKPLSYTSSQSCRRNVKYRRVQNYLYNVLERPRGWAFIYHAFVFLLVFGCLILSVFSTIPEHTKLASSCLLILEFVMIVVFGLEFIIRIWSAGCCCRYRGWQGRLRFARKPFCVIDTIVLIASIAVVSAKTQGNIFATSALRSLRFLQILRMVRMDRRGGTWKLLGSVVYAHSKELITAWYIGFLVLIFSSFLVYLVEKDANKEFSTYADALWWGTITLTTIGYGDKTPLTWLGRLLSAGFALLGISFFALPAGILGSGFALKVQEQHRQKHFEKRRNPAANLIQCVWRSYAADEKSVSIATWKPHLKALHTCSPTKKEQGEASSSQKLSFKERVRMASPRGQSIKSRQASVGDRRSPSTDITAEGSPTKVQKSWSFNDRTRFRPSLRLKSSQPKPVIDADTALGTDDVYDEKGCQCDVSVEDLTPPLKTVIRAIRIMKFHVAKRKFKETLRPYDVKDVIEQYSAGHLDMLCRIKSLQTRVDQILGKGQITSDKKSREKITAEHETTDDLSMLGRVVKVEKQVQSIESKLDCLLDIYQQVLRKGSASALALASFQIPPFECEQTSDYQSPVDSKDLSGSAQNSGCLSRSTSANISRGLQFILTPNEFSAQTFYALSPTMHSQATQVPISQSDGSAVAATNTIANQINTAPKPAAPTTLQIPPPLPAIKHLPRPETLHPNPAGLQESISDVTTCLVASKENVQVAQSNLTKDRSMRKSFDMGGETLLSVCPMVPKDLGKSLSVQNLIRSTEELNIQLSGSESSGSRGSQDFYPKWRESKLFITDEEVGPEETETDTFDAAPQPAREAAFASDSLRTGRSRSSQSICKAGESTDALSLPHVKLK

Brain [6] = assay: Fraction unbound in Sprague-Dawley rat brain at 10 mg/kg, po administered at 60 mins by LC-MS/MS analysis; assay type: ADME, organism-based; conditions: in vivo, 1 h
[7] = Fraction unbound in rat plasma by equilibrium dialysis method; assay type: ADME, cell-free
[8] = molecular target: Voltage-gated potassium channel, IKs; KCNQ1(Kv7.1)/KCNE1(MinK) (Homo sapiens, UniProt P15382+P51787); assay: Activation of human Kv7.1/KCNE1 expressed in CHOK1 cells; assay type: cell-based, CHO-K1
Sequence of Voltage-gated potassium channel, IKs; KCNQ1(Kv7.1)/KCNE1(MinK) (P51787 whole entry): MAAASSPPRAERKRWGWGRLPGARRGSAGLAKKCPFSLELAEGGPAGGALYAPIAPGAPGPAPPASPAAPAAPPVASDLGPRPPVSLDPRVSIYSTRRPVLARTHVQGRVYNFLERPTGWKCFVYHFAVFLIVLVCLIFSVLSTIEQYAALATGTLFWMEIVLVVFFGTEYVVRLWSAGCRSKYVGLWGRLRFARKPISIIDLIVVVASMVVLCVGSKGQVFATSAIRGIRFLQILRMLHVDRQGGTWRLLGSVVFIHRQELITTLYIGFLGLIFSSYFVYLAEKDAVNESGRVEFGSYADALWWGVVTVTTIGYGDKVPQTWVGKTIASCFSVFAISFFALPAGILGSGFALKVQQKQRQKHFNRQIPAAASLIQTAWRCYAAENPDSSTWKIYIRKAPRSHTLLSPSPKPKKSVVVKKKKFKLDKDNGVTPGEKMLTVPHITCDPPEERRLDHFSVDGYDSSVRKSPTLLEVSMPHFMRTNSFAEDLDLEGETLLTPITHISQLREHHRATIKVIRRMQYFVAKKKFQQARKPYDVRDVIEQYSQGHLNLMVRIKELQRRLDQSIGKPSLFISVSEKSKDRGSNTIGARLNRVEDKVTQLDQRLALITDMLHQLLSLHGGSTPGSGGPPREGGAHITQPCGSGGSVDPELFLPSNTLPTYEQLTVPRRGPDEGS

[9] = molecular target: Potassium voltage-gated channel subfamily KQT member 2/member 3 (Rattus norvegicus, UniProt O88943+O88944); assay: Activation of rat Kv7.2/7.3 expressed in CHOK1 cells; assay type: cell-based, CHO-K1
Rattus norvegicus [10] = assay: Anticonvulsant activity in Sprague-Dawley rat assessed as protection against maximal electroshock-induced convulsion at 3 mg/kg, po administered 60 mins prior to application of shock via corneal electrodes relative to control; assay type: functional
[11] = molecular target: T3, Potassium voltage-gated channel subfamily KQT member 4 (Rattus norvegicus, UniProt Q9JK96); assay: Activation of rat Kv7.4 expressed in CHOK1 cells; assay type: cell-based, CHO-K1
T3 sequence (Q9JK96 whole entry): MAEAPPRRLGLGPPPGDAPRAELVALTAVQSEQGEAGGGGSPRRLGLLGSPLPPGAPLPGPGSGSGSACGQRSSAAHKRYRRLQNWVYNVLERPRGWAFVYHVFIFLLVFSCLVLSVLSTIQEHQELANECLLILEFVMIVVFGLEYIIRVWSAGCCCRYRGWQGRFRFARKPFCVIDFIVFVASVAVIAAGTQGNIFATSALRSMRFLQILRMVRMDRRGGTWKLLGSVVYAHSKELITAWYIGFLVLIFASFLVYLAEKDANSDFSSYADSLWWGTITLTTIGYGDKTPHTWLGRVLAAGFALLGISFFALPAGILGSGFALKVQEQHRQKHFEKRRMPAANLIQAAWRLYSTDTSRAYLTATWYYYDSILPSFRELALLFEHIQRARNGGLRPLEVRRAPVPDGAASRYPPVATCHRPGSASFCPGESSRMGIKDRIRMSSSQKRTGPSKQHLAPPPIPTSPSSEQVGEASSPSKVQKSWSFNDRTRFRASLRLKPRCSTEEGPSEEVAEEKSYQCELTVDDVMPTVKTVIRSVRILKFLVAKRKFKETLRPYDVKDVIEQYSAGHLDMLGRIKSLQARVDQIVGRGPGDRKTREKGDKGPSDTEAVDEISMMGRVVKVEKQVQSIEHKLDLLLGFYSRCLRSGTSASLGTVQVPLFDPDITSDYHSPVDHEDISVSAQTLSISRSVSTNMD

Rattus norvegicus [12] = assay: Anticonvulsant activity in Sprague-Dawley rat assessed as protection against maximal electroshock-induced convulsion at 1 mg/kg, po administered 60 mins prior to application of shock via corneal electrodes relative to control; assay type: functional
[13] = molecular target: Potassium voltage-gated channel subfamily KQT member 2/member 3 (Rattus norvegicus) (UniProt O88943+O88944); assay: Activation of rat Kv7.2/7.3 expressed in CHOK1 cells assessed as increase in current amplitude relative to control; assay type: cell-based; conditions: CHO-K1
Plasma [14] = assay: Unbound plasma concentration in Sprague-Dawley rat at 10 mg/kg, po administered at 60 mins by LC-MS/MS analysis; assay type: ADME, organism-based; conditions: in vivo, 1 h
Brain [15] = assay: Fraction unbound in Sprague-Dawley rat brain at 1 mg/kg, sc administered at 30 mins by LC-MS/MS analysis; assay type: ADME, organism-based; conditions: in vivo, 0.5 h
[16] = Ratio of free drug level in plasma to brain in Sprague-Dawley rat at 30 mg/kg, sc administration at 30 mins; assay type: ADME, organism-based; conditions: in vivo, 0.5 h
Rattus norvegicus [17] = assay: Anticonvulsant activity in Sprague-Dawley rat assessed as protection against maximal electroshock-induced convulsion at 30 mg/kg, po administered 60 mins prior to application of shock via corneal electrodes relative to control; assay type: functional
[18] = Intrinsic clearance in human liver microsomes measured over 1 hr in presence of NADPH regenerating system; assay type: ADME; conditions: read-out: CLH
[19] = molecular target: Voltage-gated potassium channel, KQT; KCNQ2(Kv7.2)/KCNQ3(Kv7.3) (Homo sapiens, UniProt O43525+O43526); assay: (§1) Activation of human Kv7.2/7.3 expressed in CHOK1 cells; assay type: cell-based, CHO-K1
Sequence of Voltage-gated potassium channel, KQT; KCNQ2(Kv7.2)/KCNQ3(Kv7.3) (O43526 whole entry): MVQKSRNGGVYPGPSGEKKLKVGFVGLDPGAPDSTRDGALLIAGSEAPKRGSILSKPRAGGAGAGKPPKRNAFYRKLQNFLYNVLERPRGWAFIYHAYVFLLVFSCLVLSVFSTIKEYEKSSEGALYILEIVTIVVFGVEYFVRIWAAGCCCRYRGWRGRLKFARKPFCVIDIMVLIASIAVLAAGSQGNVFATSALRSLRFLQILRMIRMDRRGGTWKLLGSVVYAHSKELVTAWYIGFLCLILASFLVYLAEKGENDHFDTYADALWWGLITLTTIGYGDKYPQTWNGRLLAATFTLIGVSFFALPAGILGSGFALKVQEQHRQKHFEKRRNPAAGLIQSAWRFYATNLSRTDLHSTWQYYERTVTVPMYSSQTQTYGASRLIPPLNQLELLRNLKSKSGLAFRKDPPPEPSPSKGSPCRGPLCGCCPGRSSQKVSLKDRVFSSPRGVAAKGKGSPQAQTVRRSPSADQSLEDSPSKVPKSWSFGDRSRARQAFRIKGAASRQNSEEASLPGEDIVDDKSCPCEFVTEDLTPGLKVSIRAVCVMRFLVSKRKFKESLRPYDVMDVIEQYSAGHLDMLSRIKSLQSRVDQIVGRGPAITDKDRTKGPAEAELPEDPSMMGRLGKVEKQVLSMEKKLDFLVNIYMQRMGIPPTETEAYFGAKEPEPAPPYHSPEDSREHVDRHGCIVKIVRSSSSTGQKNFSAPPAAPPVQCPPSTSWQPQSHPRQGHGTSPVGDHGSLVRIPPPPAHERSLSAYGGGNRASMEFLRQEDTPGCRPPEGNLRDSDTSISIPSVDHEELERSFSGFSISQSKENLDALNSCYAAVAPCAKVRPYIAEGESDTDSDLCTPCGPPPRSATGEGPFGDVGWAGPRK
Sequence of Voltage-gated potassium channel, KQT; KCNQ2(Kv7.2)/KCNQ3(Kv7.3) (O43525 whole entry): as the sequence (O43525 whole entry) above

[20] = molecular target: T1, Voltage-gated potassium channel, KQT; KCNQ2(Kv7.2)/KCNQ3(Kv7.3) (Homo sapiens); assay: as §1; assay type: cell-based; conditions: CHO-K1
Plasma [21] = assay: Unbound plasma concentration in Sprague-Dawley rat at 3 mg/kg, po administered at 60 mins by LC-MS/MS analysis; assay type: ADME, organism-based; conditions: in vivo, 1 h
Brain [22] = assay: Fraction unbound in Sprague-Dawley rat brain at 30 mg/kg, po administered at 60 mins by LC-MS/MS analysis; assay type: ADME, organism-based; conditions: in vivo, 1 h
[23] = molecular target: T2, Voltage-gated potassium channel KCNQ3/KCNQ5; assay: Activation of human Kv7.3/7.5 expressed in CHOK1 cells; assay type: cell-based, CHO-K1
Plasma [24] = assay: Unbound plasma concentration in Sprague-Dawley rat at 1 mg/kg, po administered at 60 mins by LC-MS/MS analysis; assay type: ADME, organism-based; conditions: in vivo, 1 h
[25] = Ratio of free drug level in plasma to brain in Sprague-Dawley rat at 3 mg/kg, sc administration at 30 mins; assay type: ADME, organism-based; conditions: in vivo, 0.5 h
[26] = Ratio of free drug level in plasma to brain in Sprague-Dawley rat at 10 mg/kg, sc administration at 30 mins; assay type: ADME, organism-based; conditions: in vivo, 0.5 h
Plasma [27] = assay: Unbound plasma concentration in Sprague-Dawley rat at 30 mg/kg, sc administered at 30 mins by LC-MS/MS analysis; assay type: ADME, organism-based; conditions: in vivo, 0.5 h
[28] = Permeability in dog RRCK cells after 2 hrs by transwell assay; assay type: ADME, cell-based, Canis lupus familiaris, MDCKII-LE; conditions: mdck, read-out: permeability
[29] = Ratio of free drug level in plasma to brain in Sprague-Dawley rat at 3 mg/kg, po administration at 60 mins; assay type: ADME, organism-based; conditions: in vivo, 1 h
[30] = Fraction unbound in rat brain by equilibrium dialysis method; assay type: ADME, tissue-based
[31] = Ratio of free drug level in plasma to brain in Sprague-Dawley rat at 1 mg/kg, po administration at 60 mins; assay type: ADME, organism-based; conditions: in vivo, 1 h
[32] = molecular target: T4, Potassium voltage-gated channel subfamily KQT member 4 (Rattus norvegicus) (UniProt Q9JK96); assay: Activation of rat Kv7.4 expressed in CHOK1 cells assessed as increase in current amplitude relative to control; assay type: cell-based; conditions: CHO-K1
T4 sequence (whole entry): T3 sequence (Q9JK96 whole entry)

CHO-K1 = assay: Activation of rat Kv7.3/7.5 expressed in CHOK1 cells assessed as increase in current amplitude relative to control; assay type: cell-based

Which results are given for `COc1nc(N2CCC(OC)CC2)nc(OC)c1NC(=O)CC(C)(C)C`?
Activity (Rattus norvegicus [1]): 100%; Activity (Rattus norvegicus [2]): Dose-dependent effect; Ratio [3]: 0.57; Activity [4]: 265%; Activity [5]: 246%; Drug uptake(free) (Brain [6]): 83 nM; fraction unbound [7]: 0.184; pEC50 [8]: < 4.00; pEC50 [9]: 6.53; Activity (Rattus norvegicus [10]): 88%; pEC50 [11]: 6.42; Activity (Rattus norvegicus [12]): 0%; Activity [13]: 237%; Cp(f) (Plasma [14]): 225 nM; Drug uptake(free) (Brain [15]): 33 nM; Ratio [16]: 0.55; Activity (Rattus norvegicus [17]): 100%; CLint scaled [18]: 15.6 mL/min/kg; pEC50 [19]: 6.48; max activation [20]: 147%; Cp(f) (Plasma [21]): 109 nM; Drug uptake(free) (Brain [22]): 274 nM; pEC50 [23]: 6.23; Cp(f) (Plasma [24]): 15 nM; Ratio [25]: 0.59; Ratio [26]: 0.59; Cp(f) (Plasma [27]): 305 nM; Papp at 2 h [28]: 24.9 ×10⁻⁶ cm/s; Ratio [29]: 0.39; fraction unbound [30]: 0.13; Ratio [31]: 0.42; Activity [32]: 161%; Activity (CHO-K1): 207%
